The values below come from patent US4977146A, “2,5-diaryl tetrahydrofurans and analogs thereof as PAF antagonists” (Merck & Co., Inc., priority 1990, dated 1990).

Molecules are shown by their SMILES.

Usually inhibition stands for the change of the read-out against control, counted positive when it falls.

In the assay the target is T1, PAF specific receptor binding site on human platelet membranes (Homo sapiens, UniProt P25105).
T1 construct: 100 μg of the platelet plasma membrane suspension; from tissue; host or cells: human platelets (plasma membranes)
T1 sequence (P25105 whole entry): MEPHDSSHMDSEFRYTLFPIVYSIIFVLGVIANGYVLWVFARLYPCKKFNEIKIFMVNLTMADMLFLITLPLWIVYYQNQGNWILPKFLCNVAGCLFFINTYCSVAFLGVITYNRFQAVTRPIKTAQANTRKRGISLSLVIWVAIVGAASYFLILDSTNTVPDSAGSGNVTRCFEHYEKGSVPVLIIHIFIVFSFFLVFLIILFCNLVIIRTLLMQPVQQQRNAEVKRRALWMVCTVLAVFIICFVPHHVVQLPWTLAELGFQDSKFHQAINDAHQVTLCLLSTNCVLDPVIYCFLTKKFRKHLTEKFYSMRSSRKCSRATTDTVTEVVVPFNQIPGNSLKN
The experiment in a line: inhibition of the binding of [3H] N-methylcarbamoyl-PAF to human platelet membranes. The conditions noted are these: trans configuration, read-out: % inhibitor* (% inhibition of the binding of [3H] N-methylcarbamoyl-PAF to human platelet membranes). Here is the method:
The ability of a compound of formula (I) to inhibit the PAF binding to its specific receptor binding site on rabbit or human platelet or PMN plasma membranes was measured by a recently developed assay.
The inhibition of ^3 [H] PAF or ^3 [H]N-methylcarbamoyl-PAF binding to the human or rabbit platelet or PMN plasma membrane by a PAF antagonist of formula (I) was determined by a method employing isotopic labeling and filtration techniques. Generally, a series of Tris-buffered solutions of the selected antagonist at predetermined concentrations were prepared. […] Two control samples, one of which (C1) contains all the ingredients described above except the antagonist and the other (C2) contains C1 plus a 1000-fold excess of unlabeled PAF, were also prepared and incubated simultaneously with the test samples. After the incubation was completed, the contents of each test tube were filtered in vacuo through a Whatman GF/C fiberglass filter and the residue washed rapidly several times with a total of 20 ml cold (0°-5° C.) Tris-buffer solution. Each washed residue was then suspended in 10 ml scintillation solution (Aquasol 2, New England Nuclear, Connecticut) and the radioactivity was counted in a Packard Tri-Carb 460CD Liguid Scintillation System.
`CCCOc1c(OCCCN(C)C)cc([C@@H]2CC[C@@H](c3cc(OC)c(OC)c(OC)c3)O2)cc1S(=O)(=O)CC(C)=O` (relative stereo) [2-[3-(2-Oxopropylsulfonyl)4-n-propoxy-5-{3-(N,N-dimethylamino)-n-propoxy}phenyl]-5-(3,4,5-trimethoxyphenyl)tetrahydrofuran]: the inhibition is 17%.
Turning to `CCCOc1c(OCC(C)=O)cc([C@H]2CC[C@H](c3cc(OC)c(OC)c(OC)c3)O2)cc1S(=O)(=O)CCO` (relative stereo) [SO2 CH2 CH2OH / CH2 CH2 CH3 / CH2 COCH3, trans-2-[3-(2-Hydroxyethylsulfonyl)-4-n-propoxy-5-(2-oxo-propoxy)phenyl]-5-(3,4,5-trimethoxy-phenyl)tetrahydrofuran], the inhibition is 33%.
As for `CCCOc1c(OCC(C)=O)cc([C@H]2CC[C@H](c3cc(OC)c(OC)c(OC)c3)O2)cc1S(=O)(=O)CC(C)=O` (relative stereo) [SO2 CH2 COCH3 / CH2 CH2 CH3 / CH2 COCH3, trans-2-[3-(2-Oxopropyl-sulfonyl)-4-n-propoxy-5-(2-oxopropoxy)phenyl]-5-(3,4,5-trimethoxyphenyl)tetrahydrofuran], the inhibition was 65%.
In the case of `CCCOc1cc([C@H]2CC[C@H](c3cc(OC)c(OC)c(OC)c3)O2)cc(S(=O)(=O)CCN)c1OCCC` (relative stereo) [trans-2-[3-(2-Aminoethylsulfonyl)-4,5-dipropoxyphenyl]-5-(3,4,5-trimethoxyphenyl)tetrahydrofuran], the inhibition worked out at 27%.
`CCCOc1c(OCCCO)cc([C@H]2CC[C@H](c3cc(OC)c(OC)c(OC)c3)O2)cc1S(=O)(=O)CC(C)N` (relative stereo) [trans-2-[3-(2-Aminopropylsulfonyl)-4-n-propoxy-5-(3-hydroxypropoxy)phenyl]5-(3,4,5-trimethoxyphenyl)tetrahydrofuran]: the inhibition came out at 18%.
The figure for `CCCOc1c(OCC(C)=O)cc([C@@H]2CC[C@@H](c3cc(OC)c(OC)c(OC)c3)O2)cc1S(=O)(=O)CCN(C)C` (relative stereo) [trans-2-[3-(2-N,N-Dimethylaminoethyl-sulfonyl)-4-n-propoxy-5-(2-oxo-propoxyphenyl]-5-(3,4,5-trimethoxyphenyl)tetrahydrofuran] is 31%; for `CCCOc1cc([C@@H]2CC[C@@H](c3cc(OC)c(OC)c(OC)c3)O2)cc(S(=O)(=O)CCN(C)C)c1OCCC` (relative stereo) [trans-2-[3-(2-N,N-Dimethylaminoethylsulfonyl)-4,5-di-n-propoxyphenyl]-5-(3,4,5-trimethoxyphenyl)tetrayhydrofuran] it is 58%; for `CCCOc1c(OCC(C)O)cc([C@@H]2CC[C@@H](c3cc(OC)c(OC)c(OC)c3)O2)cc1S(=O)(=O)CCN(C)C` (relative stereo) [trans-2-[3-(2-N,N-Dimethylaminoethylsulfonyl)-4-n-propoxy-5-(2-hydroxypropoxy)phenyl]-5-(3,4,5-trimethoxyphenyl)tetrahydrofuran] it is 14%.
Take `CCCOc1c(OCCCO)cc([C@@H]2CC[C@@H](c3cc(OC)c(OC)c(OC)c3)O2)cc1S(=O)(=O)CCN(C)C` (relative stereo) [trans-2-[3-(2-N,N-Dimethylaminoethylsulfonyl)-4-n-propoxy-5-(3-hydroxypropoxy)phenyl]-5-(3,4,5-trimethoxyphenyl)tetrahydrofuran]: the inhibition stood at 46%.
Next, `CCCOc1c(OCCCO)cc([C@@H]2CC[C@@H](c3cc(OC)c(OC)c(OC)c3)O2)cc1S(=O)(=O)CC(C)N(C)C` (relative stereo) [trans-2-[3-(2-N,N-dimethylaminopropyl-sulfonyl)-4-n-propoxy-5-(3-hydroxypropoxy)phenyl]5-(3,4,5-trimethoxyphenyl)tetrahydrofuran]: 23%; `CCCOc1cc([C@@H]2CC[C@@H](c3cc(OC)c(OC)c(OC)c3)O2)cc(S(=O)(=O)CCNCC)c1OCCC` (relative stereo) [trans-2-[3-(2-N-Ethylaminoethylsulfonyl)-4,5-dipropoxyphenyl]-5-(3,4,5-trimethoxyphenyl)tetrahydrofuran]: 42%.
For the compound `CCCOc1c(OCCCO)cc([C@@H]2CC[C@@H](c3cc(OC)c(OC)c(OC)c3)O2)cc1S(=O)(=O)CC(C)NCC` (relative stereo) [trans-2-[3-(2-N-Ethylaminopropylsulfonyl)-4-propoxy-5-(3-hydroxypropoxy)phenyl]-5-(3,4,5-trimethoxyphenyl)tetrahydrofuran], the inhibition stood at 36%.
`CCCOc1cc([C@@H]2CC[C@@H](c3cc(OC)c(OC)c(OC)c3)O2)cc(S(=O)(=O)CCNC)c1OCCC` (relative stereo) [trans-2-[3-(2-N-Methylaminoethylsulfonyl)-4,5-di-n-propoxyphenyl]-5-(3,4,5-trimethoxyphenyl) tetrahydrofuran]: the inhibition was found to be 58%.
Take `CCCOc1c(OCCCO)cc([C@@H]2CC[C@@H](c3cc(OC)c(OC)c(OC)c3)O2)cc1S(=O)(=O)CC(C)NC` (relative stereo) [trans-2-[3-(2-N-Methylaminopropylsulfonyl)-4-n-propoxy-5-(3-hydroxypropoxy)phenyl]-5-(3,4,5-trimethoxyphenyl)tetrahydrofuran]: the inhibition came to 38%.
For `CCCNCCS(=O)(=O)c1cc([C@@H]2CC[C@@H](c3cc(OC)c(OC)c(OC)c3)O2)cc(OCCC)c1OCCC` (relative stereo) [trans-2-[3-(2-N-Propylaminoethylsulfonyl)-4,5-dipropoxyphenyl]-5-(3,4,5-trimethoxyphenyl) tetrahydrofuran], the inhibition is 33%.
As for `CCCOc1c(OCC(C)=O)cc([C@H]2CC[C@H](c3cc(OC)c(OC)c(OC)c3)O2)cc1S(=O)(=O)CC(C)O` (relative stereo) [trans-2-[3-(2-hydroxypropylsulfonyl)-4-n-propoxy-5-(2-oxopropoxy)phenyl]-5-(3,4,5-trimethoxy-phenyl)tetrahydrofuran], the inhibition was 52%.
With `CCCOc1c(OCCCO)cc([C@H]2CC[C@H](c3cc(OC)c(OC)c(OC)c3)O2)cc1S(=O)(=O)CC(C)O` (relative stereo) [trans-2-[3-(2-hydroxypropylsulfonyl)-4-n-propoxy-5-(3-hydroxypropoxy)phenyl]-5-(3,4,5-trimethoxyphenyl)tetrahydrofuran], the inhibition was determined as 26%.
